Source: patent publication US7659283B2, “Pyrrolo [3,2-C] pyridines useful as inhibitors of protein kinases” (Vertex Pharmaceuticals Incorporated, priority 2006, dated 2010)
pKi: −log10 of the molar value.

Assays:
human Src kinase = human Src kinase (Homo sapiens, UniProt P12931); experiment: Src Inhibition Assay: Spectrophotometric Assay; assay type: biochemical; details: 25 nM Src, 100 μM ATP, 30° C., coupled NADH spectrophotometric assay; read-out: Ki (inhibit Src)
Experimental: The compounds are evaluated as inhibitors of human Src kinase using a spectrophotometric assay.
Src Inhibition Assay: Spectrophotometric Assay
An assay buffer solution was prepared which consisted of 25 mM HEPES (pH 7.5), 10 mM MgCl2, 250 μM NADH, 3 mM phosphoenolpyruvate, 60 μg/mL pyruvate kinase, 21 μg/mL lactate dehydrogenase, 113 μM ATP and 28 nM Src. To 60 μL of this solution, in a 96 well plate, was added 2 μL of test compound stock solution in DMSO and the mixture allowed to equilibrate for 10 mins at 30° C. The enzyme reaction was initiated by the addition of 5 μL 10 mg/mL poly Glu, Tyr (4:1) prepared in 25 mM HEPES (pH 7.5). Final assay concentrations of Src and ATP were 25 nM and 100 μM respectively. Initial rate data was determined from the rate of change of absorbance at 340 nm (corresponding to stoichiometric consumption of NADH) using a Molecular Devices Spectramax plate reader (Sunnyvale, Calif.) over 10 mins at 30° C. For each Ki determination 8 data points covering the test compound concentration range of 0-7.5 μM were obtained in duplicate. Ki values were calculated from initial rate data by non-linear regression using the Prism software package (Prism 4.0a, Graphpad Software, San Diego, Calif.).

human Lck kinase = human Lck kinase (Homo sapiens, UniProt P06239); experiment: Lck Inhibition Assay: Spectrophotometric Assay; assay type: biochemical; details: 60 nM Lck, 500 μM ATP, 30° C., coupled NADH spectrophotometric assay; read-out: Ki (inhibit Lck)
Experimental: The compounds are evaluated as inhibitors of human Lck kinase using a spectrophotometric assay.
Lck Inhibition Assay: Spectrophotometric Assay
An assay buffer solution was prepared which consisted of 25 mM HEPES (pH 7.5), 10 mM MgCl2, 250 μM NADH, 3 mM phosphoenolpyruvate, 43 μg/mL pyruvate kinase, 14 μg/mL lactate dehydrogenase, 560 μM ATP and 67 nM Lck. To 60 μL of this solution, in a 96 well plate, was added 2 μL of test compound stock solution in DMSO and the mixture allowed to equilibrate for 10 minutes at 30° C. The enzyme reaction was initiated by the addition of 5 μL 15 mg/mL poly Glu, Tyr (4:1) prepared in 25 mM HEPES (pH 7.5). Final assay concentrations of Lck and ATP are 60 nM and 500 μM respectively. Initial rate data was determined from the rate of change of absorbance at 340 nm (corresponding to stoichiometric consumption of NADH) using a Molecular Devices Spectramax plate reader (Sunnyvale, Calif.) over 10 min at 30° C. For each Ki determination 8 data points covering the test compound compound concentration range of 0-7.5 μM are obtained in duplicate. Ki values are calculated from initial rate data by non-linear regression using the Prism software package (Prism 4.0a, Graphpad Software, San Diego, Calif.).

Sequence of human Lck kinase (P06239 whole entry): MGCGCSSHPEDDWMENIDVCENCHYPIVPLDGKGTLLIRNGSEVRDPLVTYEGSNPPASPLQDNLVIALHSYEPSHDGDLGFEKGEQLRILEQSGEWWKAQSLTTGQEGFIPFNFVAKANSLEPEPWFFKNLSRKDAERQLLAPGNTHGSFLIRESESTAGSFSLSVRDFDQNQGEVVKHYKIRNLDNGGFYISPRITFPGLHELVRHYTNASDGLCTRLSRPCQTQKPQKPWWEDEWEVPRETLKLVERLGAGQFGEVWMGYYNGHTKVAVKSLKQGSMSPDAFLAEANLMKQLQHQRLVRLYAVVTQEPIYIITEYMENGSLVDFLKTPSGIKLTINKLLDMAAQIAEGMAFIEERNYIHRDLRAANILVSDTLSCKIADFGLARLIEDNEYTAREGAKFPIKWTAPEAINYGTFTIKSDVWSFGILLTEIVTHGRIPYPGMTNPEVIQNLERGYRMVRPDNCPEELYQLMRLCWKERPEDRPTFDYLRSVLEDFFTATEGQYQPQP
Sequence of human Src kinase (P12931 whole entry): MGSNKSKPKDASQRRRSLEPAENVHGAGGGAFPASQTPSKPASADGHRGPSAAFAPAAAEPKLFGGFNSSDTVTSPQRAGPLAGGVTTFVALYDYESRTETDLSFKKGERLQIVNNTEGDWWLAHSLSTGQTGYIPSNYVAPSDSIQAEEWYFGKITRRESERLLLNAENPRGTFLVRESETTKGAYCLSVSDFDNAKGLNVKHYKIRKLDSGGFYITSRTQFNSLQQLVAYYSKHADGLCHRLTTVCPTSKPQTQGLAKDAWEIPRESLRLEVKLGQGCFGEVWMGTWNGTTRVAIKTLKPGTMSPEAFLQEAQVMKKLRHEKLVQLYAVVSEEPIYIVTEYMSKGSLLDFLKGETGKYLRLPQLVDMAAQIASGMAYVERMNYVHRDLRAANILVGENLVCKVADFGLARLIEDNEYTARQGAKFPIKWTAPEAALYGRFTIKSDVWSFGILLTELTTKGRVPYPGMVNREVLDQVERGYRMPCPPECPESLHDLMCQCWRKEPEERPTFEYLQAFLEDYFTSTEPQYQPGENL

pKi (human Src kinase): > 6.00
pKi (human Lck kinase): > 6.00
Structure (SMILES): Nc1nccc2c1c(-c1ccc(Oc3ccccc3)cc1)cn2C1CCCC1 [Compound I-1, 1-Cyclopentyl-3-(4-phenoxyphenyl)-1H-pyrrolo[3,2-c]pyridin-4-amine]
